# Columns and labels:
# Assay type in all cases: in vivo
# [1] = tested on: redroot pigweed (Amaranthus retroflexus, AMARE); experiment: Pre-emerge test, greenhouse herbicide activity screening; conditions: rating scale 0-100, 14 days after application
# Summary of the method: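 Plants grown in 10 cm pots of sandy loam mix received acetone-dissolved compounds through a moving flat-fan nozzle. Doses ranged from 15 to 1000 g ai/ha. Pre-emerge pots were seeded one day earlier, post-emerge pots 8–21 days earlier. Fourteen days on, each pot was graded 0–100 for damage.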
# [2] = tested on: field corn (Zea mays L., var. Dekalb 535, CORN); experiment: Post-emerge test, crop safety; conditions: rating scale 0-100 (0 no damage, 100 complete death), 14 days after application
# Summary of the method: (§1)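 Visual ratings on a 0-100 scale (0 no damage, 100 all plants dead) were taken at 14 days after treatment. Rates of 15-1000 g ai/ha in acetone, 187 l/ha, were sprayed onto soil one day after planting (pre-emerge) or onto 2-3 leaf plants with 0.25% v/v surfactant (post-emerge).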
# [3] = tested on: upland rice (Oryza sp., var. Tebonnet, RICE); experiment: Post-emerge test, crop safety; conditions: rating scale 0-100 (0 no damage, 100 complete death), 14 days after application
# Summary of the method: as §1
# [4] = tested on: lambsquarters (Chenopodium album, CHEAL); experiment: Post-emerge test, greenhouse herbicide activity screening; conditions: rating scale 0-100 (0 no damage, 100 complete death), 14 days after application
# Summary of the method: (§2)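 Herbicidal damage is scored 0 (none) to 100 (complete plant death) two weeks after a simulated field spray. Rates span 15–1000 g ai/ha, delivered in acetone at 187 l/ha. For post-emergence treatments, plants have 2–3 leaves and the spray carries 0.25% v/v non-ionic surfactant.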
# [5] = tested on: green foxtail (Setaria viridis, SETVI); experiment: as above; conditions: rating scale 0-100 (0 no damage, 100 complete death), 14 days after application
# Summary of the method: as §2
# [6] = tested on: johnsongrass (Sorghum halepense, SORHA); experiment: as above; conditions: rating scale 0-100 (0 no damage, 100 complete death), 14 days after application
# Summary of the method: as §2
# [7] = tested on: ivyleaf morningglory (Ipomoea hederacea, IPOHE); experiment: as above; conditions: rating scale 0-100 (0 no damage, 100 complete death), 14 days after application
# Summary of the method: as §2
# [8] = tested on: redroot pigweed (Amaranthus retroflexus, AMARE); experiment: as above; conditions: rating scale 0-100 (0 no damage, 100 complete death), 14 days after application
# Summary of the method: as §2
# [9] = tested on: sicklepod (Cassia obtusifolia, CASOB); experiment: as above; conditions: rating scale 0-100 (0 no damage, 100 complete death), 14 days after application
# Summary of the method: as §2
# [10] = tested on: barnyardgrass (Echinochloa crus-galli, ECHCG); experiment: as above; conditions: rating scale 0-100 (0 no damage, 100 complete death), 14 days after application
# Summary of the method: as §2
# [11] = tested on: velvetleaf (Abutilon theophrasti, ABUTH); experiment: as above; conditions: rating scale 0-100 (0 no damage, 100 complete death), 14 days after application
# Summary of the method: as §2
# [12] = tested on: large crabgrass (Digitaria sanguinalis, DIGSA); experiment: as above; conditions: rating scale 0-100 (0 no damage, 100 complete death), 14 days after application
# Summary of the method: as §2
# [13] = tested on: lambsquarters (Chenopodium album, CHEAL); experiment: Pre-emerge test, greenhouse herbicide activity screening; conditions: rating scale 0-100, 14 days after application
# Summary of the method: as §1
# [14] = tested on: green foxtail (Setaria viridis, SETVI); experiment: as above; conditions: rating scale 0-100, 14 days after application
# Summary of the method: as §1
# [15] = tested on: johnsongrass (Sorghum halepense, SORHA); experiment: as above; conditions: rating scale 0-100, 14 days after application
# Summary of the method: as §1
# [16] = tested on: ivyleaf morningglory (Ipomoea hederacea, IPOHE); experiment: as above; conditions: rating scale 0-100, 14 days after application
# Summary of the method: as §1
# [17] = tested on: sicklepod (Cassia obtusifolia, CASOB); experiment: as above; conditions: rating scale 0-100, 14 days after application
# Summary of the method: as §1
# [18] = tested on: barnyardgrass (Echinochloa crus-galli, ECHCG); experiment: as above; conditions: rating scale 0-100, 14 days after application
# Summary of the method: as §1
# [19] = tested on: velvetleaf (Abutilon theophrasti, ABUTH); experiment: as above; conditions: rating scale 0-100, 14 days after application
# Summary of the method: as §1
# [20] = tested on: large crabgrass (Digitaria sanguinalis, DIGSA); experiment: as above; conditions: rating scale 0-100, 14 days after application
# Summary of the method: as §1
# [21] = tested on: field corn (Zea mays L., var. Dekalb 535, CORN); experiment: Pre-emerge test, crop safety; conditions: rating scale 0-100, 14 days after application
# Summary of the method: as §2
# [22] = tested on: upland rice (Oryza sp., var. Tebonnet, RICE); experiment: Pre-emerge test, crop safety; conditions: rating scale 0-100, 14 days after application
# Summary of the method: as §2
smiles,measurement,setting,value
"C#CCOC(=O)C(Cl)Cc1c(OC)c(Cl)cc(F)c1-n1c(=O)cc(C(F)(F)F)n(C)c1=O (single isomer, unassigned) [14-20]","Pre-emerge herbicidal activity, phytotoxicity rating AMARE",[1]; 63 g ai/ha,50
same,"Pre-emerge herbicidal activity, phytotoxicity rating AMARE",[1]; 250 g ai/ha,100
same,Post-emerge phytotoxicity rating CORN (crop damage),[2]; Rate 63 g ai/ha,0
same,Post-emerge phytotoxicity rating CORN (crop damage),[2]; Rate 250 g ai/ha,80
same,Post-emerge phytotoxicity rating RICE (crop damage),[3]; Rate 63 g ai/ha,0
same,Post-emerge phytotoxicity rating RICE (crop damage),[3]; Rate 250 g ai/ha,10
same,"Post-emerge Herbicidal Activity, phytotoxicity rating CHEAL",[4]; Rate 63 g ai/ha,80
same,"Post-emerge Herbicidal Activity, phytotoxicity rating CHEAL",[4]; Rate 250 g ai/ha,100
same,"Post-emerge Herbicidal Activity, phytotoxicity rating SETVI",[5]; Rate 63 g ai/ha,0
same,"Post-emerge Herbicidal Activity, phytotoxicity rating SETVI",[5]; Rate 250 g ai/ha,50
same,"Post-emerge Herbicidal Activity, phytotoxicity rating SORHA",[6]; Rate 63 g ai/ha,10
same,"Post-emerge Herbicidal Activity, phytotoxicity rating SORHA",[6]; Rate 250 g ai/ha,90
same,"Post-emerge Herbicidal Activity, phytotoxicity rating IPOHE",[7]; Rate 63 g ai/ha,50
same,"Post-emerge Herbicidal Activity, phytotoxicity rating IPOHE",[7]; Rate 250 g ai/ha,70
same,"Post-emerge Herbicidal Activity, phytotoxicity rating AMARE",[8]; Rate 63 g ai/ha,95
same,"Post-emerge Herbicidal Activity, phytotoxicity rating AMARE",[8]; Rate 250 g ai/ha,100
same,"Post-emerge Herbicidal Activity, phytotoxicity rating CASOB",[9]; Rate 63 g ai/ha,0
same,"Post-emerge Herbicidal Activity, phytotoxicity rating CASOB",[9]; Rate 250 g ai/ha,50
same,"Post-emerge Herbicidal Activity, phytotoxicity rating ECHCG",[10]; Rate 63 g ai/ha,100
same,"Post-emerge Herbicidal Activity, phytotoxicity rating ECHCG",[10]; Rate 250 g ai/ha,100
same,"Post-emerge Herbicidal Activity, phytotoxicity rating ABUTH",[11]; Rate 63 g ai/ha,99
same,"Post-emerge Herbicidal Activity, phytotoxicity rating ABUTH",[11]; Rate 250 g ai/ha,100
same,"Post-emerge Herbicidal Activity, phytotoxicity rating DIGSA",[12]; Rate 63 g ai/ha,100
same,"Post-emerge Herbicidal Activity, phytotoxicity rating DIGSA",[12]; Rate 250 g ai/ha,100
same,"Pre-emerge herbicidal activity, phytotoxicity rating CHEAL",[13]; 63 g ai/ha,0
same,"Pre-emerge herbicidal activity, phytotoxicity rating CHEAL",[13]; 250 g ai/ha,80
same,"Pre-emerge herbicidal activity, phytotoxicity rating SETVI",[14]; 63 g ai/ha,0
same,"Pre-emerge herbicidal activity, phytotoxicity rating SETVI",[14]; 250 g ai/ha,30
same,"Pre-emerge herbicidal activity, phytotoxicity rating SORHA",[15]; 63 g ai/ha,0
same,"Pre-emerge herbicidal activity, phytotoxicity rating SORHA",[15]; 250 g ai/ha,20
same,"Pre-emerge herbicidal activity, phytotoxicity rating IPOHE",[16]; 63 g ai/ha,0
same,"Pre-emerge herbicidal activity, phytotoxicity rating IPOHE",[16]; 250 g ai/ha,0
same,"Pre-emerge herbicidal activity, phytotoxicity rating CASOB",[17]; 63 g ai/ha,0
same,"Pre-emerge herbicidal activity, phytotoxicity rating CASOB",[17]; 250 g ai/ha,0
same,"Pre-emerge herbicidal activity, phytotoxicity rating ECHCG",[18]; 63 g ai/ha,0
same,"Pre-emerge herbicidal activity, phytotoxicity rating ECHCG",[18]; 250 g ai/ha,40
same,"Pre-emerge herbicidal activity, phytotoxicity rating ABUTH",[19]; 63 g ai/ha,0
same,"Pre-emerge herbicidal activity, phytotoxicity rating ABUTH",[19]; 250 g ai/ha,90
same,"Pre-emerge herbicidal activity, phytotoxicity rating DIGSA",[20]; 63 g ai/ha,0
same,"Pre-emerge herbicidal activity, phytotoxicity rating DIGSA",[20]; 250 g ai/ha,90
same,"Pre-emerge phytotoxicity rating, crop damage CORN",[21]; 63 g ai/ha,0
same,"Pre-emerge phytotoxicity rating, crop damage CORN",[21]; 250 g ai/ha,50
same,"Pre-emerge phytotoxicity rating, crop damage RICE",[22]; 63 g ai/ha,0
same,"Pre-emerge phytotoxicity rating, crop damage RICE",[22]; 250 g ai/ha,0
"COc1c(Cl)cc(F)c(-n2c(=O)cc(C(F)(F)F)n(C)c2=O)c1CC(Cl)C(=O)OCCOc1ccccc1 (single isomer, unassigned) [14-27]","Pre-emerge herbicidal activity, phytotoxicity rating AMARE",[1]; 63 g ai/ha,50
same,"Pre-emerge herbicidal activity, phytotoxicity rating AMARE",[1]; 250 g ai/ha,100
same,Post-emerge phytotoxicity rating CORN (crop damage),[2]; Rate 63 g ai/ha,5
same,Post-emerge phytotoxicity rating CORN (crop damage),[2]; Rate 250 g ai/ha,10
same,Post-emerge phytotoxicity rating RICE (crop damage),[3]; Rate 63 g ai/ha,0
same,Post-emerge phytotoxicity rating RICE (crop damage),[3]; Rate 250 g ai/ha,0
same,"Post-emerge Herbicidal Activity, phytotoxicity rating CHEAL",[4]; Rate 63 g ai/ha,90
same,"Post-emerge Herbicidal Activity, phytotoxicity rating CHEAL",[4]; Rate 250 g ai/ha,100
same,"Post-emerge Herbicidal Activity, phytotoxicity rating SETVI",[5]; Rate 63 g ai/ha,0
same,"Post-emerge Herbicidal Activity, phytotoxicity rating SETVI",[5]; Rate 250 g ai/ha,20
same,"Post-emerge Herbicidal Activity, phytotoxicity rating SORHA",[6]; Rate 63 g ai/ha,0
same,"Post-emerge Herbicidal Activity, phytotoxicity rating SORHA",[6]; Rate 250 g ai/ha,10
same,"Post-emerge Herbicidal Activity, phytotoxicity rating IPOHE",[7]; Rate 63 g ai/ha,70
same,"Post-emerge Herbicidal Activity, phytotoxicity rating IPOHE",[7]; Rate 250 g ai/ha,50
same,"Post-emerge Herbicidal Activity, phytotoxicity rating AMARE",[8]; Rate 63 g ai/ha,50
same,"Post-emerge Herbicidal Activity, phytotoxicity rating AMARE",[8]; Rate 250 g ai/ha,90
same,"Post-emerge Herbicidal Activity, phytotoxicity rating CASOB",[9]; Rate 63 g ai/ha,50
same,"Post-emerge Herbicidal Activity, phytotoxicity rating CASOB",[9]; Rate 250 g ai/ha,30
same,"Post-emerge Herbicidal Activity, phytotoxicity rating ECHCG",[10]; Rate 63 g ai/ha,99
same,"Post-emerge Herbicidal Activity, phytotoxicity rating ECHCG",[10]; Rate 250 g ai/ha,100
same,"Post-emerge Herbicidal Activity, phytotoxicity rating ABUTH",[11]; Rate 63 g ai/ha,70
same,"Post-emerge Herbicidal Activity, phytotoxicity rating ABUTH",[11]; Rate 250 g ai/ha,80
same,"Post-emerge Herbicidal Activity, phytotoxicity rating DIGSA",[12]; Rate 63 g ai/ha,70
same,"Post-emerge Herbicidal Activity, phytotoxicity rating DIGSA",[12]; Rate 250 g ai/ha,95
same,"Pre-emerge herbicidal activity, phytotoxicity rating CHEAL",[13]; 63 g ai/ha,0
same,"Pre-emerge herbicidal activity, phytotoxicity rating CHEAL",[13]; 250 g ai/ha,90
same,"Pre-emerge herbicidal activity, phytotoxicity rating SETVI",[14]; 63 g ai/ha,0
same,"Pre-emerge herbicidal activity, phytotoxicity rating SETVI",[14]; 250 g ai/ha,0
same,"Pre-emerge herbicidal activity, phytotoxicity rating SORHA",[15]; 63 g ai/ha,0
same,"Pre-emerge herbicidal activity, phytotoxicity rating SORHA",[15]; 250 g ai/ha,0
same,"Pre-emerge herbicidal activity, phytotoxicity rating IPOHE",[16]; 63 g ai/ha,0
same,"Pre-emerge herbicidal activity, phytotoxicity rating IPOHE",[16]; 250 g ai/ha,0
same,"Pre-emerge herbicidal activity, phytotoxicity rating CASOB",[17]; 63 g ai/ha,0
same,"Pre-emerge herbicidal activity, phytotoxicity rating CASOB",[17]; 250 g ai/ha,0
same,"Pre-emerge herbicidal activity, phytotoxicity rating ECHCG",[18]; 63 g ai/ha,0
same,"Pre-emerge herbicidal activity, phytotoxicity rating ECHCG",[18]; 250 g ai/ha,0
same,"Pre-emerge herbicidal activity, phytotoxicity rating ABUTH",[19]; 63 g ai/ha,0
same,"Pre-emerge herbicidal activity, phytotoxicity rating ABUTH",[19]; 250 g ai/ha,30
same,"Pre-emerge herbicidal activity, phytotoxicity rating DIGSA",[20]; 63 g ai/ha,0
same,"Pre-emerge herbicidal activity, phytotoxicity rating DIGSA",[20]; 250 g ai/ha,90
same,"Pre-emerge phytotoxicity rating, crop damage CORN",[21]; 63 g ai/ha,0
same,"Pre-emerge phytotoxicity rating, crop damage CORN",[21]; 250 g ai/ha,0
same,"Pre-emerge phytotoxicity rating, crop damage RICE",[22]; 63 g ai/ha,0
same,"Pre-emerge phytotoxicity rating, crop damage RICE",[22]; 250 g ai/ha,0
